Data from patent US20170059568A1, “Identification of JC viral epitopes by cytotoxic T lymphocytes in healthy individuals and their use in assays” (JANSSEN PHARMACEUTICA NV, priority 2014, published 2017).

Tests used:
Type in all cases: cell-based, human
CD8+-enriched PBMC [1] = experiment: Direct ex vivo IFN-gamma ELISPOT screening of 98 predicted JCPyV MHC class I peptides in 92 healthy subjects; conditions: for JCPyV-seronegative subjects reacting against the peptide, out of 22: 22 JCPyV VP1 antibody-seronegative subjects with CTL response; for JCPyV-seronegative subjects reacting against the peptide: 22 JCPyV VP1 antibody-seronegative subjects with CTL response (adj p<0.1); for Positive Donors (p < 0.1): number of responding donors among about 10 donors of the predicted HLA allotype, 5*10^5 CD8+-enriched PBMC per well; for Positive Donors (p < 0.1) / tested donors/subjects with significant T cell response to the peptide: peptide 10 μM; for tested donors/subjects with significant T cell response to the peptide: initial screening, allotype-specific subjects; for all subjects tested showing a positive response: independent of HLA-type
Description: The 9-mer and 10-mer JCPy virus test peptides were synthesized and HPLC purified to >90% (Thermo Fisher Scientific, GmbH). Peptides were solubilized in DMSO and used in ELISPOT (Mabtech, Sweden) at 10 μM.
(§1) To enrich for the CD8+ T cell population, CD4+ cells were depleted from the PBMC using magnetic cell separation, according to the manufacturer's instructions (StemCell Technologies, Vancouver, Canada).
(§2) PBMC from selected subjects were thawed, washed and seeded onto anti-IFN-γ coated 96-well plates (Mabtech, Sweden) at 2.5*10^5 or 5*10^5 cells per well. Test antigens were diluted in the assay media and added to the cells at the specified doses. Assay medium containing DMSO, and assay medium alone were included as blank conditions for all donors. Cells were incubated for 16-18 hours in a humidified atmosphere at 37° C., 5% CO2. After the incubation period the cells were washed from the plates and an in-house spot development procedure was used to determine IFN-γ production (Lonza, Cambridge, UK). Upon completion of spot development, the plates were scanned, counted and QC analysis conducted using the ImmunoSpot Analyzer (Cellular Technologies Ltd, Cleveland, US).
(§3) The spot count per well (i.e. the number of IFN-γ secreting cells per well) in response to each test antigen was analyzed. Mean values were calculated from the triplicate wells for each test condition. Data analysis was then carried out using the distribution free resampling method (DFR). The DFR method compares each test condition against the blank for each donor and calculates whether the difference is statistically significant (p<0.1).
(§4) The ELISPOT with CD8+-enriched PBMC (5*10^5 cells per well) with the standard ELISPOT assay medium without overnight resting period was used in further experiments.
All viral protein (VP1, VP2, agnoprotein, common T, large T Antigen (LTAg), and small t Antigen (stAg) from both JCPyV and BKPyV) sequences were scanned for the presence of putative HLA class I restricted epitopes. Profiling is performed at the allotype level for 16A and 12B, i.e. 28 HLA class I receptors in total. […] Therefore, during the further selection of epitopes with high expected immunogenicity potential, the following aspects were considered: high HLA-A and -B impact of epitopes, high promiscuity of epitopes, specificity to JCPyV proteins, potential preference for 9-mer peptides, minimal similarity of epitopes to human proteome sequences, location of epitopes in the JCPyV protein sequences Based on the in silico predictions, 98 peptides of the JCPyV proteins were finally selected, representing potential T cell epitopes for the major HLA class I allotypes in the global population. To test immunogenicity of these 98 peptides the ten most common HLA allotypes were selected, 5 HLA-A and 5 HLA-B allotypes (A*0101, A*0201, A*0301, A*1101, A*2402, B*0702, B*0801, B*1501, B*3501 and B*4001) and for each HLA allotype we aimed to have approximately 10 peptides that gave the strongest signal in Epibase. Alongside, the positive controls (CEF, VP1 peptide pool, and VP1 p100) and negative controls (medium blank and DMSO) were tested. The control peptide pools gave responses in the expected range, in 87% and 60% of all subjects tested, showing a positive response to the CEF and JCPyV VP1 peptide pools, respectively. […] The results for the other proteins can be found in supplementary Table 1 and 2.

CD8+-enriched PBMC [2] = experiment: Direct ex vivo IFN-gamma ELISPOT validation of the top 10 peptides and their pool in 20 donors; conditions: for donors responding (T cell response): 20 selected donors covering 8 HLA allotypes
Description: The peptide pool of top 10 peptides originating from the initial screening (JCPyV pool) was solubilized in DMSO at 12.5 mg/ml per peptide with a final working concentration of the pool around 10 μM.
as §1, §2, §3, §4
To verify whether the newly identified epitopes were really immunodominant, the 10 newly identified peptides were tested individually or as a peptide pool in the optimized CD8+ T cell enriched direct ex vivo ELISPOT assay. Twenty subjects were selected which cover 8 of the 10 HLA allotypes that were initially selected. […]

CD8+-enriched PBMC [3] = experiment: Direct ex vivo IFN-gamma ELISPOT optimization (cell amount, CD8+ enrichment, medium, overnight rest)
Description: as §2
The spot count per well (i.e. the number of IFN-γ secreting cells per well) in response to each test antigen was analyzed. Mean values were calculated from the triplicate wells for each test condition. […]
It has been reported that for some viral peptides, the use of serum-free assay medium and overnight resting of the PBMC before stimulation with peptide can increase peptide specific T cell responses. The influence of assay medium and overnight resting of PBMC was evaluated using only CD8+-enriched PBMC from 5 HLA-A*02 subjects and one non-HLA-A*02 subject.

Sequence: RILIFLLEFL (JC polyomavirus) [AP00402]
- JCPyV-seronegative subjects reacting against the peptide, out of 22 (CD8+-enriched PBMC [1]): 8
- JCPyV-seronegative subjects reacting against the peptide (CD8+-enriched PBMC [1]): 36%
- Positive Donors (p < 0.1) (CD8+-enriched PBMC [1]): 6

Sequence: MAGVAWIHCL (JC polyomavirus) [AP00423]
- tested donors/subjects with significant T cell response to the peptide (CD8+-enriched PBMC [1]): 90%
- Positive Donors (p < 0.1) (CD8+-enriched PBMC [1]): 9

Sequence: FLRSSPLVWI (JC polyomavirus) [AP00386]
- tested donors/subjects with significant T cell response to the peptide (CD8+-enriched PBMC [1]): 80%
- Positive Donors (p < 0.1) (CD8+-enriched PBMC [1]): 8
- donors with significant T cell response out of 20 tested (CD8+-enriched PBMC [2]; 20 donors, peptides tested separately and as pool): 20
- donors responding (T cell response) (CD8+-enriched PBMC [2]): 100%

Sequence: STISQAFWNL (JC polyomavirus) [AP00400]
- Positive Donors (p < 0.1) (CD8+-enriched PBMC [1]): 6

Sequence: YPISFLLTDL (JC polyomavirus) [AP00377]
- Positive Donors (p < 0.1) (CD8+-enriched PBMC [1]): 5

Sequence: LTCGNILMW (JC polyomavirus) [AP00367]
- Positive Donors (p < 0.1) (CD8+-enriched PBMC [1]): 4

Sequence: FESDSPNRDM (JC polyomavirus) [AP00457]
- Positive Donors (p < 0.1) (CD8+-enriched PBMC [1]): 6
- donors responding (T cell response) (CD8+-enriched PBMC [2]): 90%

Sequence: SAIAQLGYRF (JC polyomavirus) [AP00441]
- Positive Donors (p < 0.1) (CD8+-enriched PBMC [1]): 5

Sequence: ILMWEAVTL [AP00410]
- JCPyV-seronegative subjects reacting against the peptide, out of 22 (CD8+-enriched PBMC [1]): almost all responded
- JCPyV-seronegative subjects reacting against the peptide (CD8+-enriched PBMC [1]): 82%
- subjects showing a positive response out of 92 tested (CD8+-enriched PBMC [1]; all 92 subjects): 44
- all subjects tested showing a positive response (CD8+-enriched PBMC [1]; all 92 subjects): 37%
- all subjects tested showing a positive response (CD8+-enriched PBMC [1]; all 92 subjects, listed as JCPyV VP1 p100 9-mer): 48%
- significant responses in A*0201 and A*2402 allotypes (CD8+-enriched PBMC [1]; donors with A*0201 and A*2402 allotypes): 58%
- Positive Donors (p < 0.1) (CD8+-enriched PBMC [1]): 7
- subjects with significant IFN-γ response (DFR method) (CD8+-enriched PBMC [3]; FIG. 1 condition C: CD8+-enriched PBMC 5*10^5 per well, 3 HLA-A*02 and one non-HLA-A*02 subject): two subjects responded
- donors with significant IFN-γ response (CD8+-enriched PBMC [3]; FIG. 2 condition D: CD8+-enriched PBMC, serum containing medium, no overnight rest, 5 HLA-A*02 and one non-HLA-A*02 subject): three of them also responded

Sequence: GEAAATIEV (JC polyomavirus) [AP00460]
- Positive Donors (p < 0.1) (CD8+-enriched PBMC [1]): 3

Sequence: ILMWEAVTLK [AP00388, JCPyV VP1 p100 10-mer]
- potency at inducing CD8+ T cell responses, 10-mer compared with 9-mer (CD8+-enriched PBMC [1]; A*2402 donors): far less potent than the 9-mer
